Results published in patent US20250388584A1, “TPK AGONIST AND METHOD FOR TREATING NEURODEGENERATIVE DISEASES USING SAME” (SHANGHAI RAISING PHARMACEUTICAL CO., LTD., priority 2022, published 2025).
Counter-ions that a name gives are not always drawn. Like-named read-outs stand apart in the source and are kept apart here.

Target: TPK enzyme (Homo sapiens (Human), UniProt Q9H3S4)
Assay: TPK enzyme activity test
Assay type: biochemical
Conditions: for Emax: calculated with the effect of DMSO on TPK enzyme activity as 100%; for EC50: promoting effect on TPK enzyme activity

Chain of TPK enzyme (Q9H3S4 whole entry): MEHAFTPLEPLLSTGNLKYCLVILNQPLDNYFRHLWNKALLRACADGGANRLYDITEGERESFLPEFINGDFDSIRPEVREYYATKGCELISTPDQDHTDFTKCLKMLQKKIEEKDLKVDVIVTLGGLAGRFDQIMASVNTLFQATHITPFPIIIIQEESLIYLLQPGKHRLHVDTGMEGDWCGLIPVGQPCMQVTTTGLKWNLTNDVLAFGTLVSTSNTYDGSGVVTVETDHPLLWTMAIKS

Row | SMILES | Emax (read-out: Emax) | EC50 | Emax
1 | Cc1ccc2[nH]c3c(=O)n(CCC(=O)N4CCN(c5ccccc5C(F)(F)F)CC4)cnc3c2c1 [Compound 4, 8-methyl-3-(3-oxo-3-(4-(2-(trifluoromethyl)phenyl)piperazin-1-yl)propyl)-3,5-dihydro-4H-pyrimido[5,4-b]indol-4-one] | 128% | – | –
2 | Cc1ccc2[nH]c3c(=O)n(CCC(=O)N4CCC(O)(c5cccc(C(F)(F)F)c5)CC4)cnc3c2c1 [Compound 165, 3-(3-(4-hydroxy-4-(3-(trifluoromethyl)phenyl)piperidin-1-yl)-3-oxopropyl)-8-methyl-3,5-dihydro-4H-pyrimido[5,4-b]indol-4-one] | 157% | 2490 nM | –
3 | Cc1ccc2[nH]c3c(=O)n(CCC(=O)N4CCN(c5ccccc5F)CC4)cnc3c2c1 [Compound 40] | 125% | – | –
4 | Cc1ccc2[nH]c3c(=O)n(CCCC(=O)N4CCN(c5cccc(Cl)c5Cl)CC4)cnc3c2c1 [Compound 15, 3-(4-(4-(2,3-dichlorophenyl)piperazin-1-yl)-4-oxobutyl)-8-methyl-3,5-dihydro-4H-pyrimido[5,4-b]indol-4-one] | 145% | 463 nM | –
5 | COc1cc2[nH]c3c(=O)n(CC(=O)NCc4cccc(C(F)(F)F)c4)cnc3c2cc1OC [Compound 113] | 120% | – | –
6 | Cc1ccc(N2CCN(C(=O)CCn3cnc4c([nH]c5ccc(C)cc54)c3=O)CC2)c(C)c1 [Compound 31] | 151% | 1210 nM | –
7 | Cc1ccc2c(c1)-c1nc(=O)n(CCCN3CCN(c4cccc(Cl)c4Cl)CC3)cc1CO2 [Compound 213, 3-(3-(4-(2,3-dichlorophenyl)piperazin-1-yl)propyl)-9-methyl-3,5-dihydro-2H-chromeno[4,3-d]pyrimidin-2-one] | 174% | 546 nM | –
8 | O=C(CCn1cnc2c([nH]c3ccc(Br)cc32)c1=O)N1CCN(c2cccc(C(F)(F)F)c2)CC1 [Compound 12, 8-bromo-3-(3-oxo-3-(4-(3-(trifluoromethyl)phenyl)piperazin-1-yl)propyl)-3,5-dihydro-4H-pyrimido[5,4-b]indol-4-one] | 205% | – | –
9 | Cc1ccc2[nH]c3c(=O)n(CCC(=O)N4CCN(c5cccc(C(F)(F)F)c5)CC4)ccc3c2c1 [Compound 59, 6-methyl-2-(3-oxo-3-(4-(3-(trifluoromethyl)phenyl)piperazin-1-yl)propyl)-2,9-dihydro-1H-pyrido[3,4-b]indol-1-one] | 190% | 1380 nM | –
10 | Cc1ccc2c(c1)-c1ncn(CCC(=O)N3CCC(Cc4ccc(F)cc4)CC3)c(=O)c1CC2 [Compound 225, 3-(3-(4-(4-fluorobenzyl)piperidin-1-yl)-3-oxopropyl)-9-methyl-5,6-dihydrobenzo[h]quinazolin-4(3H)-one] | – | 930 nM | –
11 | Cc1ccc2[nH]c3c(=O)n(CCC(=O)NCCNc4ccc5c(c4)CCCC5)cnc3c2c1 [Compound 131, 3-(8-methyl-4-oxo-4,5-dihydro-3H-pyrimido[5,4-b]indol-3-yl)-N-(2-((5,6,7,8-tetrahydronaphthalen-2-yl)amino)ethyl)propanamide] | 193% | – | –
12 | Cc1ccc2[nH]c3c(=O)n(CCCCN4CCN(c5cccc(C(F)(F)F)c5)CC4)cnc3c2c1 [Formate salt of 48, 8-methyl-3-(4-(4-(3-(trifluoromethyl)phenyl)piperazin-1-yl)butyl)-3,5-dihydro-4H-pyrimido[5,4-b]indol-4-one] | 210% | 1060 nM | –
13 | Cc1ccc2[nH]c3c(=O)n(CCC(=O)N4CCN(c5cc(Cl)ccc5Cl)CC4)cnc3c2c1 [Compound 2, 3-(3-(4-(2,5-dichlorophenyl)piperazin-1-yl)-3-oxopropyl)-8-methyl-3,5-dihydro-4H-pyrimido[5,4-b]indol-4-one] | 149% | 2050 nM | –
14 | Cc1ccc2c(c1)[nH]c1c(=O)n(CCC(=O)N3CCN(c4cccc(Cl)c4Cl)CC3)cnc12 [Compound 13, 3-(3-(4-(2,3-dichlorophenyl)piperazin-1-yl)-3-oxopropyl)-7-methyl-3,5-dihydro-4H-pyrimido[5,4-b]indol-4-one] | 124% | – | –
15 | Cc1ccc2[nH]c3c(=O)n(CC(=O)N4CCN(c5ccc(F)cc5)CC4)cnc3c2c1 [Compound 63] | 148% | – | –
16 | Cc1ccc2[nH]c3c(=O)n(CCC(=O)N4CCN(c5ccc(S(=O)(=O)N6CCCCC6)cc5)CC4)cnc3c2c1 [Compound 169, 8-methyl-3-(3-oxo-3-(4-(4-(piperidin-1-ylsulfonyl)phenyl)piperazin-1-yl)propyl)-3,5-dihydro-4H-pyri mid[5,4-b]indol-4-one] | 147% | 2140 nM | –
17 | Cc1ccc2c(c1)N1CCCC(C(=O)NCCCN3CCN(c4cccc(C(F)(F)F)c4)CC3)C1CO2 (centres unmarked) [Formate salt of 232, 2-methyl-N-(3-(4-(3-trifluoromethylphenyl)piperazin-1-yl)propyl)-6,6a,7,8,9,10-hexahydrobenzo[b]pyrido[1,2-d][1,4]oxazine-7-carboxamide Formate] | – | 1810 nM | 136%
18 | O=C1CCCCN1CCCN1c2ccccc2Sc2ccccc21 [Compound 186, 1-(3-(10H-phenothiazin-10-yl)propyl)piperidin-2-one] | 176% | 2660 nM | –
19 | Cc1ccc2c(c1)[nH]c1c(=O)n(CCC(=O)N3CCN(c4ccc(Cl)cc4Cl)CC3)cnc12 [Compound 3, 3-(3-(4-(2,4-dichlorophenyl)piperazin-1-yl)-3-oxopropyl)-7-methyl-3,5-dihydro-4H-pyrimido[5,4-b]indol-4-one] | 136% | 1780 nM | –

Row | SMILES | Emax (read-out: Emax) | EC50 | Emax
20 | Cc1ccc2[nH]c3c(=O)n(CCC(=O)N4CCN(c5cccc(C(F)(F)F)c5)CC4)cnc3c2c1 [Compound 61] | 172% | 1210 nM | –
21 | Cc1ccc2[nH]c3c(=O)n(CCC(=O)NCCN(C)c4cccc(C(F)(F)F)c4)cnc3c2c1 [Compound 93, N-(2-(methyl(3-(trifluoromethyl)phenyl)amino)ethyl)-3-(8-methyl-4-oxo-4,5-dihydro-3H-pyrimido[5,4-b]indol-3-yl)propanamide] | 192% | – | –
22 | O=c1c2c(ncn1CCCN1CCN(c3cccc(Cl)c3Cl)CC1)-c1ccccc1CCC2 [Formate salt of 222, 3-(3-(4-(2,3-dichlorophenyl)piperazin-1-yl)propyl)-3,5,6,7-tetrahydro-4H-benzo[6,7]cyclohepta[1,2-d]pyrimidin-4-one Formate] | – | 500 nM | 143%
23 | Cc1ccc2[nH]c3c(=O)n(CCC(=O)NCc4cc(C(F)(F)F)cc(C(F)(F)F)c4)cnc3c2c1 [Compound 66, N-(3,5-bis(trifluoromethyl)benzyl)-3-(8-methyl-4-oxo-4,5-dihydro-3H-pyrimido[5,4-b]indol-3-yl)propanamide] | 138% | – | –
24 | Cc1ccc2[nH]c3c(=O)n(CCC(=O)N4CCN(c5cccc(C(N)=O)c5)CC4)cnc3c2c1 [Compound 28, 3-(4-(3-(8-methyl-4-oxo-4,5-dihydro-3H-pyrimido[5,4-b]indol-3-yl)propanoyl)piperazin-1-yl)benzamide] | 124% | – | –
25 | O=C(CCn1cnc2c([nH]c3ccc(C(F)(F)F)cc32)c1=O)N1CCN(Cc2cc(F)c(F)c(F)c2)CC1 [Compound 54, 3-(3-oxo-3-(4-(3,4,5-trifluorobenzyl)piperazin-1-yl)propyl)-8-(trifluoromethyl)-3,5-dihydro-4H-pyrimido[5,4-b]indol-4-one] | 170% | 1680 nM | –
26 | C[C@H](OC(C)(C)C)[C@@H](NC(=O)OCC1c2ccccc2-c2ccccc21)C(=O)O [Compound 142] | 224% | 9040 nM | –
27 | COc1ccc2c(c1)N1CCN(c3ccccc3OC)CC1C(C(=O)NCCN1CCCCC1)C2 (centres unmarked) [Compound 139] | 198% | 950 nM | –
28 | O=C1CCc2ccc(OCCCCN3c4ccccc4Sc4ccc(C(F)(F)F)cc43)cc2N1 [Compound 204] | – | 107 nM | 186.22%
29 | Cc1cccc2[nH]c3c(=O)n(CCC(=O)NCc4cccc(C(F)(F)F)c4)cnc3c12 [Compound 77, 3-(9-methyl-4-oxo-4,5-dihydro-3H-pyrimido[5,4-b]indol-3-yl)-N-(3-(trifluoromethyl)benzyl)propanamide] | 122% | – | –
30 | Cc1ccc2[nH]c3c(=O)n(CCC(=O)N4CCN(c5ccc(Cl)cc5Cl)CC4)cnc3c2c1 [Compound 7, 3-(3-(4-(2,4-dichlorophenyl)piperazin-1-yl)-3-oxopropyl)-8-methyl-3,5-dihydro-4H-pyrimido[5,4-b]indol-4-one] | 148% | 2320 nM | –
31 | O=C(CCn1cnc2c([nH]c3ccc(C(F)(F)F)cc32)c1=O)NCc1cccc(C(F)(F)F)c1 [Compound 71, 3-(4-oxo-8-(trifluoromethyl)-4,5-dihydro-3H-pyrimido[5,4-b]indol-3-yl)-N-(3-(trifluoromethyl)benzyl)propanamide] | 142% | – | –
32 | Cc1ccc2c(c1)[nH]c1c(=O)n(CCC(=O)N3CCN(c4cccc(C(F)(F)F)c4)CC3)cnc12 [Compound 22, 7-methyl-3-(3-oxo-3-(4-(3-(trifluoromethyl)phenyl)piperazin-1-yl)propyl)-3,5-dihydro-4H-pyrimido[5,4-b]indol-4-one] | 207% | – | –
33 | Cc1ccc2[nH]c3c(=O)n(CCCN4CCN(c5cccc(C(F)(F)F)c5)CC4)cnc3c2c1 [Compound 49, 8-methyl-3-(3-(4-(3-(trifluoromethyl)phenyl)piperazin-1-yl)propyl)-3,5-dihydro-4H-pyrimido[5,4-b]indol-4-one] | 136% | – | –
34 | Cc1ccc2[nH]c3c(=O)n(CC(=O)N4CCN(c5cccc(C(F)(F)F)c5)CC4)cnc3c2c1 [Compound 41] | 141% | – | –
35 | COc1cccc(CNC(=O)CCn2cnc3c([nH]c4ccc(C)cc43)c2=O)c1 [Compound 81] | 123% | – | –
36 | Cc1ccc2[nH]c3c(=O)n(CCC(=O)NCc4cccc(C(F)(F)F)c4)cnc3c2c1 [Compound 97] | 178% | 1010 nM | –
37 | Cc1ccc2[nH]c3c(=O)n(CC(=O)NCCCN4CCN(Cc5ccccc5)CC4)ncc3c2c1 [Compound 55] | 159% | 10600 nM | –
38 | Cc1ccc2[nH]c3c(=O)n(CCCN4CCN(c5cccc(Cl)c5Cl)CC4)cnc3c2c1 [Diformate salt of 52, 3-(3-(4-(2,3-dichlorophenyl)piperazin-1-yl)propyl)-8-methyl-3,5-dihydro-4H-pyrimido[5,4-b]indol-4-one] | 195% | 1280 nM | –
